Results published in patent US20240114902A1, “COMPOSITIONS AND METHODS FOR DETERRING OVIPOSITION BY FRUIT FLIES” (The United States of America, as represented by The …, priority 2022, published 2024).

Assays:
Drosophila suzukii (SWD) = assay: SWD laboratory no-choice oviposition test on raspberries; format: in vivo; settings: 20 mg CFA or 20 mg CFA equivalent dose, 24 hours
Method: Laboratory no-choice test The oviposition deterrence of the key-component blend determined from the “Laboratory choice test 2” described above (2c blend composed of C8:0 and C10:0; Table 2) was tested using a no-choice bioassay in Geneva, New York, USA using organic raspberries purchased from a local grocery and using 30 cm×30 cm×30 cm screened cages as described above. Each cage held four raspberries on a 10 cm diameter glass petri dish lined with filter paper and assigned to one of five treatments: 1) 20 mg of CFA/200 μL hexane/raspberry, 2) C8:0 at 20 mg CFA equivalent dose/200 μL hexane/raspberry, 3) C10:0 at 20 mg CFA equivalent dose/200 μL hexane/raspberry, 4) 2c blend at 20 mg CFA equivalent dose/200 μL hexane/raspberry, or 5) 200 μL of hexane control/raspberry (see Table 2 for equivalent doses). Twenty SWD females (5 days old) were released into each cage and allowed to oviposit on raspberries over 24 hours in an environmental chamber (25° C., 55% RH, 16:8 L:D). At the end of each trial, the raspberries were inspected under a dissecting microscope and the eggs were counted. The experiment was replicated eight times per treatment.

[1] = test system: Bactrocera dorsalis (OFF); assay: OFF two-choice cage oviposition bioassay on guava juice-infused agar; format: in vivo; design: key to Activity (OFF oviposition group): Negative: “OFF negative” (i.e., oviposition reduced); Neutral: “OFF neutral” (i.e., no effect on oviposition); Positive: “OFF positive” (i.e., oviposition increased); settings: for OFF oviposition reduction vs control agar: 20 mg/agar, 3 days; for Activity (OFF oviposition group): individual CFA component
Method: Evaluation of oviposition deterrence of CFA: OFF oviposition bioassays were conducted using laboratory two-choice cage experiments with guava juice-infused agar as an oviposition substrate. The agar plates were prepared by pouring 30 mL of boiled agar mixture [1000 mL distilled water, 500 mL guava juice (Deans Foods, El Paso, Texas, USA), 10 g agar, 0.6 g methylparaben, 6.7 mL 95% ethanol, and 3 mL acetic acid] into a 30 mL deli plastic cup to gel. The agar was then covered with a lid to avoid desiccation. The two-choice oviposition bioassay was conducted in screened cages using 20 mated OFF females per cage (12-18 day-old; Jang E B et al., 1997, “Attraction of female oriental fruit fly, Bactrocera dorsalis, to volatile semiochemicals from leaves and extracts of a non-host plant, Panax (Polyscias guilfoylei) in laboratory and olfactometer assays,” J. Chem. Ecol. 23:1389-1401) over 3 days. Each cage was provided with a ball of water-saturated cotton, sugar, and protein hydrolysate in separate 30 mL deli cups and two guava juice agar plates-one treated with CFA diluted in hexane and the other treated with the hexane control. The agar plates were surface-treated either with 200 μL of hexane or 200 μL of CFA in one of 4 doses tested (20, 2, 0.2, and 0.02 mg/200 μL of hexane), placed into a fume hood for 10 minutes prior to use in bioassays, and positioned upside-down (i.e., treated side down) on the center of the outside top of the screened cage 17 cm apart from each other (i.e., one each of control and CFA treated), allowing female flies to oviposit on guava juice agar from the bottom through the cage screen. After three days, OFF eggs in the guava agar were gently separated from the agar in water and the number of eggs were individually counted (up to 100 eggs) or estimated volumetrically at 1 mL OFF eggs=20,000 eggs (Stephanie Gayle personal communication). The experiment was replicated six times per treatment. Determination of bioactive oviposition deterrent components from CFA: A series of bioassays was conducted to identify key deterrent components of CFA for OFF using the same two-choice bioassay design described above. […] Ethanol was used as control and for preparing dilutions of C16:0 and C18:0. Hexane was used as control and for dilutions of the other six compounds tested. Based on the outcome of these bioassays, the eight free fatty acid components were assigned to “OFF negative” (i.e., oviposition reduced), “OFF neutral” (i.e., no effect on oviposition), and “OFF positive” (i.e., oviposition increased) compound groups. Using these groupings, four different blends were formulated (indicated in Table 1), composed at the equivalent ratios and concentrations of each component found in CFA (Zhu J J et al., 2018, supra), to determine key bioactive CFA components in terms of oviposition deterrence on OFF. The approach involved testing the bioactivity of the OFF negative-component blend (4c blend) for oviposition deterrence at three different doses (2, 0.2, and 0.02 mg CFA equivalent/agar), first comparing with hexane control, then with CFA at respective equivalent doses. As the 4c blend was not as effective as CFA, a “OFF negative+OFF neutral” component blend (6c blend) was then formulated, and its effect compared with CFA at 2 and 0.2 mg CFA equivalent/agar. Two subtraction blends with one of the two OFF neutral components removed from the 6c blend (5c-i and 5c-ii blends) were formulated and compared with the 6c blend at 2 and 0.2 mg CFA equivalent/agar. The experiment was replicated four to six times per treatment.

non-SWD drosophilids = assay: Field test 2: sentinel raspberries in guava orchard, non-SWD drosophilids; format: in vivo, D. immigrans, D. simulans, D. melanogaster; settings: 20 mg CFA or equivalent dose/raspberry, 2 days
Method: Field test 2 The oviposition deterrence of the 2c key-component blend and its two individual components against SWD and non-SWD drosophilids was tested under field conditions. This experiment was conducted in a guava orchard (19° 36′33.6″N, 155° 04′ 12.6″W) located near Hilo, Hawaii. To monitor oviposition, four sentinel organic raspberries purchased from a local grocery were placed (receptacles stuffed with cotton) inside a deli cup (600 mL; Placon, Madison, Wisconsin, USA). Each cup had nine 1 cm diameter holes spaced 3 cm apart along the cup's circumference and 8.5 cm from the bottom, which allowed the drosophilids to enter the cup. The four raspberries in each cup were surface-treated with one of five treatments: 1) 2c blend at 20 mg CFA equivalent/200 μL hexane/raspberry, 2) C8:0 at 20 mg CFA equivalent/200 μL hexane/raspberry, 3) C10:0 at 20 mg CFA equivalent/200 μL hexane/raspberry, 4) CFA at 20 mg/200 μL hexane/raspberry, or 5) 200 μL of hexane control/raspberry. The deli-cup traps were hung in guava trees 1.5 m from the ground with at least 10 m spacing between adjacent traps. […] Raspberries were removed from the traps, placed in rearing cups (600 mL deli cup with organdy cap), held in environmental chamber (22.1±1.9° C., 71.7±3.1% RH, 16:8 L:D), and monitored over a 2-week period. All emerged adults were counted and identified as SWD or non-SWD drosophilids. […]

## CCCCCCCC(=O)O [C8:0, caprylic acid]
Drosophila suzukii (SWD)
  effect on SWD oviposition vs solvent control: significantly reduced SWD oviposition
[1]
  OFF oviposition reduction vs control agar: 95%
  Activity (OFF oviposition group): Negative
[1]; individual compound, 2 mg dose
  OFF oviposition deterrence at lower dose: maintained OFF oviposition deterrence
non-SWD drosophilids
  effect on oviposition from resident (non-SWD) drosophilids: not effective

## CCCCCCCCCC(=O)O [C10:0, capric acid]
Drosophila suzukii (SWD)
  effect on SWD oviposition vs solvent control: significantly reduced SWD oviposition
[1]
  OFF oviposition reduction vs control agar: 92%
  Activity (OFF oviposition group): Negative
non-SWD drosophilids
  effect on oviposition from resident (non-SWD) drosophilids: not effective
